The text below walks through data of US5106851A, “Benzofused-N-containing heterocycle derivatives” (Istituto de Angeli S.p.A., priority 1989, dated 1992).

Read-outs that look alike come from different tables or passages of the source.

In one test the target is T1, Muscarinic M1 (Rattus norvegicus, UniProt P08482).
T1 construct: displacement of ^3 H-pirenzepine from cerebral cortex homogenate; from tissue; host or cells: rat cerebral cortex homogenate
T1 sequence (P08482 1-460): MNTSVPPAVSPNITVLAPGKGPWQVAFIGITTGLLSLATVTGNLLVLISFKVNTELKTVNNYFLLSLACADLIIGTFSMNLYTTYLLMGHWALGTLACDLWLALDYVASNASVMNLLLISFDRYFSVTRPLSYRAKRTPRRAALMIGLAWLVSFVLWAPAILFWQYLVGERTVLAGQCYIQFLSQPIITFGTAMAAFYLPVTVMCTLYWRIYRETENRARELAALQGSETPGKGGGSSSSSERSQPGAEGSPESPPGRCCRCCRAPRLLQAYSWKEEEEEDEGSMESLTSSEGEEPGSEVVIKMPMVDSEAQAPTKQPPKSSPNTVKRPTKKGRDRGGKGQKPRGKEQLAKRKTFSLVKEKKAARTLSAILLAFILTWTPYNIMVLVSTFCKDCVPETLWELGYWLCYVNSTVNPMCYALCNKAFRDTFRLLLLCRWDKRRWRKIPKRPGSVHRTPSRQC
In words: Displacement of 3H-pirenzepine from cerebral cortex homogenate (receptor binding studies in vitro). Here is the method:
(§1) Muscarinic M1 activity was determined by studying the displacement of ^3 H-pirenzepine from cerebral cortex homogenate according to the procedure reported below: The cerebral cortex donors were male CD-COOBBS rats, 220-250 g body weight. The homogenization process was carried out in a Potter-Evelhjem apparatus in the presence of Na^+ /Mg^++ HEPES buffer; pH 7.4 (100 mM NaCl, 10 mM MgCl2, 20 mM HEPES); by filtering the suspension through two layers of cheesecloth. Binding curves for the under study compounds were derived indirectly from competition experiments against 0.5 nM ^3 H-pirenzepine labelling the muscarinic receptors of the cerebral cortex. 1 ml of the homogenate was incubated for 45 min at 30° C. in the presence of a maker ligand and different concentration of the cold ligand, conditions under which equilibrium was reached as determined by appropriate association experiments. The incubation was terminated by centrifugation (12,000 rpm for 3 min) at room temperature using an Eppendorf microcentrifuge. The resultant pellet was washed twice with 1.5 ml saline to remove the free radioactivity and it was allowed to dry. The tips of the tubes containing the pellet were cut off and 200 μl of tissue solubilizer (Lumasolve, Lumac) were added and left to stand overnight. Radioactivity was then counted after addition of 4 ml of liquid scintillation mixture (Dimilume/Toluene 1+10 v:v, Packard).
(§2) Assays were carried out in triplicate or quadruplicate and the non-specificbinding was defined as the radioactivity bound or entrapped in the pellet when the incubation medium contained 1 μM atropine sulphate. Non-specific binding averaged less than 30%. KD values (dissociation constants) were obtained by non-linear regression analysis on the basis of one binding site model with TOPFIT-pharmacokinetic programme package (G. Heinzel "Pharmacokinetics During Drug Development: Data Analysis and Evaluation Techniques" Eds. G. Bolzer and J. M. Van Rossum; p. 207, G. Fisher, New York, 1982) after correction for the radioligand occupancy shift according to the equation: KD =IC50 /1+*C/*KD, where *C and *KD represent the concentration and the dissociation constants of the radioligand, used respectively. Muscarinic M2 activity was examined by studing the displacement of ^3 H-NMS from total heart homogenate according to a procedure identical to the one already described hereinbefore for the muscarinic M1 activity.
On the technique in general: Displacement assays read how much labelled ligand stays bound in the presence of the test substance.

The target of another test is T2, Muscarinic M2 (Rattus norvegicus, UniProt P10980).
T2 construct: displacement of ^3 H-NMS from total heart homogenate; from tissue; host or cells: total heart homogenate
T2 sequence (P10980 1-466): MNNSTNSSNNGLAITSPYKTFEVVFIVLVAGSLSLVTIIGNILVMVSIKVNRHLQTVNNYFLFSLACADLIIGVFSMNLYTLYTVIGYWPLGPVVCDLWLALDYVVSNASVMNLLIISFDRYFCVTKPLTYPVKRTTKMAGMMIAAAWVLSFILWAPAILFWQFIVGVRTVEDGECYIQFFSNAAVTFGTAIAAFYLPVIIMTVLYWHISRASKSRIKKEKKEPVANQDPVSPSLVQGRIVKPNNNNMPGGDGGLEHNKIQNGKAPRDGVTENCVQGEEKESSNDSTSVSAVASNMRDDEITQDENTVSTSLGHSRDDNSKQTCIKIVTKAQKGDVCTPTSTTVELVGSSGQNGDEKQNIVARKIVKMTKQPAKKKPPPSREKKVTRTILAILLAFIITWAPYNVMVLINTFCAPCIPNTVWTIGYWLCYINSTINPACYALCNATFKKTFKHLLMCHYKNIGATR
The test is described as follows: Displacement of 3H-NMS from total heart homogenate (receptor binding studies in vitro). Here is the method:
as §1, §2

Another test concerns the target T3, guinea pig ileum (Cavia porcellus, UniProt H0W1Z3).
T3 construct: A 2 cm section of terminal ileum was prepared; from tissue; host or cells: isolated guinea pig terminal ileum
The test is described as follows: Functional studies in vitro, isolated guinea pig ileum contracted with bethanechol. The method, then:
(§3) Antimuscarinic activity and selectivity were examined in in vitro by receptor binding studies in two tissues endowed with M1 and M2 muscarinic receptors (cerebral cortex, heart), in functional studies in isolated guinea pig ileum and guinea pig paced left atria and in in vivo functional tests on bronchi and heart of the anaesthetized guinea pig.
Responses were recorded isotonically. Kb values were calculated according to Arunlakshana and Shild (British Journal of Pharmacology 14, 48-54, 1959).

A further test addresses T4, guinea pig left atria (Cavia porcellus, UniProt H0VRN8).
T4 construct: guinea pig paced left atria; from tissue; host or cells: isolated guinea pig left atria
T4 sequence (H0VRN8 1-466): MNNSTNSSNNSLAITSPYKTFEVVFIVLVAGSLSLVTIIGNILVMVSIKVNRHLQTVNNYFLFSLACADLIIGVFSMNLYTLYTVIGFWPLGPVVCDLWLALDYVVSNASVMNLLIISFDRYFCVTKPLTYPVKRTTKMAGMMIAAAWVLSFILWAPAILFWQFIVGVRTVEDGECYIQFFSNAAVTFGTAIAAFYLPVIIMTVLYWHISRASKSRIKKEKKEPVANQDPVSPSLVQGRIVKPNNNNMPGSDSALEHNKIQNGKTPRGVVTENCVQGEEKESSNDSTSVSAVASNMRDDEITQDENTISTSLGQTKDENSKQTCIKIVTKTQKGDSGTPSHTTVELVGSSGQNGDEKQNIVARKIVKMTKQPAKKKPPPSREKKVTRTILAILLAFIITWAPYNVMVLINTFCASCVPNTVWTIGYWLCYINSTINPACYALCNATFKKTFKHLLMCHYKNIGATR
In words: Functional studies in vitro, guinea pig paced left atria, bethanechol negative inotropic effect.
Description: as §3
The tissues were mounted in the Ewen's solution (millimolar: NaCl, 131.6; KCl, 5.6; CaCl2, 2.16; NaHCO3, 24.9; NaH2 PO4, 1.03; glucose, 11; and sucrose, 13) at 32° C. and stimulated through platinum electrodes by squarewave pulses (2 msec, 3 Hz, 100% above threshold voltage, delivered by a Grass S 48 stimulator). Inotropic activity was recorded isometrically (Statham transducer, Battaglia Rangoni ESO 300 recorder). Cumulative concentrations of bethanecol (1-30 μM) were used to induce a negative inotropic effect. Kb values were estimated as above described.

Test [1] concerns receptors with low affinity to Pirenzepine (M2 type). As to conditions: mainly in effector organs; cited from earlier work.
Test [2] has as its system Muscarinic receptors in the bronchi. In words: In vivo inhibition of acetylcholine-induced bronchoconstriction in the anaesthetized guinea pig. As to conditions: Cavia porcellus, iv, 5 min; i.v., 5 min before acetylcholine 50 μg/kg; dose in mol/kg; read-out: -log ED50, bronchi (converted). Here is the method:
(§4) Guinea pigs of either sex (550-600 g) were anaesthetized with urethane (1.4 g/kg, i.p.). A jugular vein was cannulated for injection of drugs. Heparin (200 I.U./kg) was injected i.v. A cannula was placed in the trachea and the animals were artificially respirated with oxygenated room air by means of a positive pressure pump (Braun-Melsungen) with a rate of 80 strokes/min. A side arm of the tracheal cannula was connected to a water manometer of 10 cm height. The respiratory volume was adjusted so that the maximal intratracheal pressure during inspiration just attained to a pressure of 10 cm water.
Excepts for some modifications, the effects of the drugs on bronchial tone was measured according to the method described by Konzett and Rossler (1940). The bronchoconstriction-evoked volume of respiratory gas mixture (overflow) passing through the water manometer was measured by means of a FLEISCH tube pneumotachometer (Model 0000) connected to a SP 2040 D differential pressure transducer (HSE). Registration was performed on a IFD recording device. […]
The drugs to be tested were injected via the jugular vein and 5 min later bronchial resistence (%) and the decrease in cardiac frequence (beats/min) to acetylcholine (50 μg/kg i.v. and i.a.) was measured. […]

In test [3] the test system is Muscarinic receptors in the heart. In words: In vivo inhibition of acetylcholine-induced bradycardia in the anaesthetized guinea pig. As to conditions: Cavia porcellus, iv, 5 min; i.v., 5 min before acetylcholine 50 μg/kg; dose in mol/kg; read-out: -log ED50, heart (converted). Here is the method: as §4
A cannula was placed in the left common carotid artery and arterial blood pressure was measured via a Bell and Howell 4-327 I pressure transducer connected to an IFD recording device. Cardiac frequency was measured by a ratemeter, triggered by the arterial pulsewave.
The drugs to be tested were injected via the jugular vein and 5 min later bronchial resistence (%) and the decrease in cardiac frequence (beats/min) to acetylcholine (50 μg/kg i.v. and i.a.) was measured. Dose response curves were constructed by plotting the percent inhibition of bronchoconstriction and bradycardia against the logarithm of the dose (mol/kg) of the drugs to be tested.

Test [4] deals with muscarinic responses in guinea pig longitudinal ileum and guinea pig paced left atria. As to conditions: prototype compound, in words; cited from earlier work.
Setting [5] is: total heart homogenate, 3H-NMS, read-out: KD, M2 (heart).

T3 sequence (H0W1Z3 1-590): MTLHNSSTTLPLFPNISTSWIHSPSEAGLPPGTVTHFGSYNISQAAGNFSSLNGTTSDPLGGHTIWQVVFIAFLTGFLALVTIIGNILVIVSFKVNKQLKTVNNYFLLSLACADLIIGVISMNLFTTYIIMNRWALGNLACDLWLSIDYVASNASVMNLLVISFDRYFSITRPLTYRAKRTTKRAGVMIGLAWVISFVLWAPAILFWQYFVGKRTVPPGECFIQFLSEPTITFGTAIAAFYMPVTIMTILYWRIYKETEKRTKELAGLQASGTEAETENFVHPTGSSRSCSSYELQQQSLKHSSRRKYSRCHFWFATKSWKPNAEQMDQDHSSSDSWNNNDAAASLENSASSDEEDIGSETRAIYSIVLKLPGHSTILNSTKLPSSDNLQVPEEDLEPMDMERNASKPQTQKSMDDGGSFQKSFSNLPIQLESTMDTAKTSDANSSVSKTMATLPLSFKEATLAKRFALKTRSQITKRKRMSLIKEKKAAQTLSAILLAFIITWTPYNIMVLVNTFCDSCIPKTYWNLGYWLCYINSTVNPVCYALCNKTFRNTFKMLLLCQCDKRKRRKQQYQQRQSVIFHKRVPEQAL

Usually Kd stands for a measure of binding affinity in units of concentration. Take `CN1[C@@H]2CC[C@H]1C[C@@H](OC(=O)N1Cc3ccc(Cl)cc3NC1=O)C2` [Compound 25, 7-chloro-1,4-dihydro-2(H)-2-oxo-3-quinazoline carboxylic acid-(endo-8-methyl-8-azabicyclo[3.2.1]oct-3-yl), ester]: the Kd at Muscarinic M1 amounted to 7 nM; on Muscarinic M2 (setting [5]), 1470 nM. For the same compound, the Kb at guinea pig ileum was found to be 16 nM; at guinea pig left atria, 2200 nM.

Consider `CN1C2CCC1CC(OC(=O)N1C(=O)Nc3ccccc3C1O)C2` (stereo not drawn) [Compound 49, 1,4-dihydro-4-hydroxy-2(H)-2-oxo-3-quinazolinecarboxylic acid-(endo-8-methyl-8-azabicyclo[3.2.1]oct-3-yl), ester], for which the figures for the Kd at Muscarinic M1 and at Muscarinic M2 (setting [5]) were 2 nM and 250 nM, respectively. The Kb on guinea pig ileum came out at 1 nM; at guinea pig left atria it was 75 nM.

On to `CN1[C@@H]2CC[C@H]1C[C@@H](NC(=O)N1Cc3ccccc3NC1=O)C2` [Compound 23, N-(endo-8-methyl-8-azabicyclo[3.2.1]oct-3-yl)-1,4-dihydro-2(H)-2-oxo-3-quinazoline carboxamide], for which the Kd on Muscarinic M1 is 1 nM; at Muscarinic M2, 60 nM. For the same compound, the Kb at guinea pig ileum (functional studies, guinea pig ileum, bethanechol 0.3-10 μM, read-out: Kb, ileum) was found to be 0.6 nM; at guinea pig left atria (functional studies, guinea pig paced left atria, bethanechol 1-30 μM, 32° C., read-out: Kb, heart) it was 22 nM.

Consider `CN1CCN(CC(=O)N2c3ccccc3C(=O)Nc3cccnc32)CC1` [Pirenzepine], for which the “affinity at M2 type receptors” value in test [1] was “low affinity”.

Broadly, the EC50 is the concentration that produces a half-maximal response. In the case of `CC(C[N+](C)(C)C)OC(N)=O` (centres unmarked) [bethanechol, reference compound], on guinea pig ileum (guinea pig terminal ileum, Tyrode solution, cumulative conc. 0.3-10 μM, read-out: EC50 of bethanechol (contraction)), the EC50 was 1500 nM.

One may read the ED50 as the dose at which the effect has come halfway, by size or by number of responders. On to `CN1[C@@H]2CC[C@H]1C[C@@H](OC(=O)N1Cc3ccccc3NC1=O)C2` [Compound 16, 1,4-dihydro-2(H)-2-oxo-3-quinazoline carboxylic acid-(endo-8-methyl-8-azabicyclo[3.2.1]oct-3-yl), ester], for which the Kd is 1 nM on Muscarinic M1 (cerebral cortex homogenate, 0.5 nM 3H-pirenzepine, 45 min at 30° C., pH 7.4, read-out: KD, M1 (cortex)) and 133 nM on Muscarinic M2. Further, the Kb at guinea pig ileum is 1.5 nM; at guinea pig left atria, 122 nM. Further, the figures for the ED50 in test [2] and in test [3] were 0.00794 µmol/kg and 1 µmol/kg, respectively.

For `CN1[C@@H]2CC[C@H]1C[C@@H](OC(=O)N1Cc3cc(F)ccc3NC1=O)C2` [Compound 26, 1,4-dihydro-6-fluoro-2(H)-2-oxo-3-quinazoline carboxylic acid-(endo-8-methyl-8-azabicyclo[3.2.1]oct-3-yl), ester], the Kd at Muscarinic M1 amounted to 3 nM; at Muscarinic M2 (setting [5]), 400 nM. Moreover, the Kb at guinea pig ileum amounted to 4.5 nM; at guinea pig left atria, 250 nM.

As to `CCN(CC)CC1CCCCN1CC(=O)N1c2ccccc2C(=O)Nc2cccnc21` (centres unmarked) [AF-DX-116, 11-2-{[2-(diethylamino)methyl-1-piperidinyl]acetyl}-5,11-dihydro-6H-pyrido (2,3-b)(1,4)benzodiazepin-6-one], in test [4], the “tissue selectivity among muscarinic antagonists” value is on record as “cardioselective”.

As to `C[N+]1(C)CCC(OC(=O)C(c2ccccc2)c2ccccc2)CC1` [Compound 4-DAMP, 4-diphenylacetoxy-N-methylpiperidine methobromide], in test [4], the “tissue selectivity among muscarinic antagonists” value was “smooth muscle selective”.
